# Data: patent US20240391881A1, “PHARMACEUTICAL USE AND PREPARATION METHOD FOR SUBSTITUTED HETEROARYL PHTHALAZINE DERIVATIVE” (ORIGIANT PHARMACEUTICAL CO., LTD., priority 2021, published 2024)
# pEC50: −log10 of the molar value.
# Molecular target: T1, NLRP3 inflammasomes (Homo sapiens, UniProt Q96P20)
# T1 construct: endogenous in cells; host or cells: THP-1 human monocytic cells, PMA-differentiated, LPS-primed, nigericin-stimulated
# Assay: THP-1 pyroptosis test (cell pyroptosis test)
# Type: cell-based
# Conditions: THP-1 cells differentiated with PMA, LPS stimulation, 10 μM nigericin, drug 0.001-10 μM, MTT absorbance 562 nm
# Experimental: In vitro activity screening was performed on small molecule compounds targeting inhibition on NLRP3 inflammasomes using THP-1 human monocytic cells (THP-1). THP-1 can be induced to differentiate into macrophages by phorbol ester (PMA), and the macrophages M1 can be induced to polarize by lipopolysaccharide (LPS) to release cytokines such as TNF-α, and IL-6, so as to establish a typical inflammatory model.
# THP-1 cells in a logarithmic growth phase were collected to prepare a 1×10^6 cells/mL cell suspension, PMA was added to achieve a final concentration of 300 ng/mL in the cell suspension, then 1×10^5 cells were inoculated to each well of a 96-well plate, and the cells were cultured in a 37° C., 5% CO2 cell incubator for 24 hours and induced to differentiate into macrophages.
# The next day, LPS was added to stimulate and induce the cells to produce an inflammatory model. […] In the 200 μL system of the 96-well plate, the final concentration of each drug was 0.001-10 μM, and the final concentration of the nigericin was 10 μM.
# Cell apoptosis protection rate=[(X−C0)/(C−C0)]×100%
# wherein, C, C0 and X represent average absorbance values of the normal cell group, the blank control group, and the drug treatment group, respectively. Finally, cell survival curves were fitted by Graphpad Prism 5.0 software and EC50 values of the compounds to be tested in inhibiting pyroptosis caused by NLRP3 inflammasomes were calculated.
# T1 sequence (Q96P20 whole entry): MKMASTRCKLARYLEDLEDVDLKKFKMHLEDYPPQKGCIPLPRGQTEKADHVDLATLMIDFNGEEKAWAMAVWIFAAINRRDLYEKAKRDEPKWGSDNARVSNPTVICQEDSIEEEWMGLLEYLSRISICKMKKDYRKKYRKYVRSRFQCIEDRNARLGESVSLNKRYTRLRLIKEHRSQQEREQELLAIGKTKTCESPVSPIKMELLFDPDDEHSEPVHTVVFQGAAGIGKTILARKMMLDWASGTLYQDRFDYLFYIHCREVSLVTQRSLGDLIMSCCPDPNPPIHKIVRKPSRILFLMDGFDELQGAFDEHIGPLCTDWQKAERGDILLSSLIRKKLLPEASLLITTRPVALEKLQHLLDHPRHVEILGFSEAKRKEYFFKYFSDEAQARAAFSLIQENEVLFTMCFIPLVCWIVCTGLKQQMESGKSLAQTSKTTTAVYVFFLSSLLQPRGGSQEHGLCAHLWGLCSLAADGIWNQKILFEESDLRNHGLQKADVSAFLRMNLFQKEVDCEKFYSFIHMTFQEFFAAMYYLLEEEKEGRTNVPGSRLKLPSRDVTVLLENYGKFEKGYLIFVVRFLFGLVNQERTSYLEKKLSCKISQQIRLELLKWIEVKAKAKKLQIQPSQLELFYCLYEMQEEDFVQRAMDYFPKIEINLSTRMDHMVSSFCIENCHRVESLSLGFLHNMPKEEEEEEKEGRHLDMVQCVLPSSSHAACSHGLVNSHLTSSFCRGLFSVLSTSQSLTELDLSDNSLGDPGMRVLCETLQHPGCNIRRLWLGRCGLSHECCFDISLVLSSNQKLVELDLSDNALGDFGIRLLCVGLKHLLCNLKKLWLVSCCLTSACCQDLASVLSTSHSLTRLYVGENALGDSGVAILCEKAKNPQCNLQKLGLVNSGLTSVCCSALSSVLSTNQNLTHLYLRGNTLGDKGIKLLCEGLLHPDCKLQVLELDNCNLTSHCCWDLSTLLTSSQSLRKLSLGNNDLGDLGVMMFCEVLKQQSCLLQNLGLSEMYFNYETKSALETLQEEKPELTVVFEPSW
row,Compound,pEC50
1,CN1CCC(Nc2nnc(-c3ccc(F)cc3O)c3c2cnn3C)CC1 [Compound 70],< 6.00
2,Cn1cnc2c(-c3ccc(C(F)(F)F)cc3O)nnc(NCCN3CCOCC3)c21 [Compound 77],< 6.00
3,"CN1CCC[C@@H](Nc2nnc(-c3ccc(C(F)(F)F)cc3O)c3cc(P(C)(C)=O)ccc23)C1 [Compound 45, (R)-(4-(2-hydroxy-4-(trifluoromethyl)phenyl)-1-((1-methylpiperidin-3-yl)amino)phthalazin-6-yl)dimethylphosphine oxide]",6.00 to 6.30
4,"CN1CCC[C@@H](Nc2nnc(-c3ccc(C(F)(F)F)cc3O)c3c2cnn3C)C1 [Compound 63, (R)-2-(1-methyl-4-((1-methylpiperidin-3-yl)amino)-1H-pyrazolo[3,4-d]pyridazin-7-yl)-5-(trifluoromethyl)phenol]",> 7.70
5,CN1CCC(Nc2nnc(-c3ccc(F)cc3O)c3cnn(C)c23)CC1 [Compound 69],< 6.00
6,"CN1CC[C@@H](Nc2nnc(-c3ccc(C(F)(F)F)cc3O)c3ccccc23)C1 [Compound 24, (R)-2-(4-((1-methylpyrrolidin-3-yl)amino)phthalazin-1-yl)-5-(trifluoromethyl)phenol]",> 7.70
7,"CN1CCC[C@@H](Nc2nnc(-c3ccc(C(F)(F)F)cc3O)c3ccc(P(C)(C)=O)cc23)C1 [Compound 43, (R)-(1-(2-hydroxy-4-(trifluoromethyl)phenyl)-4-((1-methylpiperidin-3-yl)amino)phthalazin-6-yl)dimethylphosphine oxide]",6.00 to 6.30
8,Cn1cnc2c(-c3ccc(C(F)(F)F)cc3O)nnc(NCC3CCOCC3)c21 [Compound 80],< 6.00
9,"CC(=O)N1CCC[C@@H](Nc2nnc(-c3ccc(C(F)(F)F)cc3O)c3ccccc23)C1 [Compound 32, (R)-1-(3-((4-(2-hydroxy-4-(trifluoromethyl)phenyl)phthalazin-1-yl)amino)piperidin-1-yl)ethane-1-one]",7.00 to 7.70
10,"CN1CCC(Nc2nnc(-c3ccc(C(F)(F)F)cc3O)c3ccccc23)CC1 [Compound 35, 2-(4-((1-methylpiperidin-4-yl)amino)phthalazin-1-yl)-5-(trifluoromethyl)phenol]",6.00 to 6.30
11,"C[C@H](Nc1nnc(-c2ccc(C(F)(F)F)cc2O)c2ccccc12)c1ccc(F)cc1 [Compound 10, (S)-2-(4-((1-(4-fluorophenyl)ethyl)amino)phthalazin-1-yl)-5-(trifluoromethyl)phenol]",< 6.00
12,Cc1ccc(-c2nnc(N[C@@H]3CCCN(C)C3)c3c2cnn3C)c(O)c1 [Compound 64],> 7.70
13,"Cc1cnc2c(N[C@@H]3CCCN(C)C3)nnc(-c3ccccc3O)c2c1 [Compound 56, (R)-2-(3-methyl-8-((1-methylpiperidin-3-yl)amino)pyridino[2,3-d]pyridazin-5-yl)phenol]",> 7.70
14,"CCc1cnc2c(-c3ccc(C(F)(F)F)cc3O)nnc(N[C@@H]3CCCN(C)C3)c2c1 [Compound 51, (R)-2-(3-ethyl-5-((1-methylpiperidin-3-yl)amino)pyridino[2,3-d]pyridazin-8-yl)-5-(trifluoromethyl)phenol]",7.00 to 7.70
15,CN1CCC[C@@H](Oc2nnc(-c3ccc(C(F)(F)F)cc3O)c3c2ncn3C)C1 [Compound 86],< 6.00
16,Cc1nc2c(N[C@@H]3CCCN(C)C3)nnc(-c3ccc(C(F)(F)F)cc3O)c2n1C [Compound 57],> 7.70
17,"Cc1ccc2c(-c3ccc(C(F)(F)F)cc3O)nnc(N[C@@H]3CCCN(C)C3)c2n1 [Compound 52, (R)-2-(2-methyl-8-((1-methylpiperidin-3-yl)amino)pyridino[2,3-d]pyridazin-5-yl)-5-(trifluoromethyl)phenol]",> 7.70
18,CN1CCC[C@@H]1CNc1nnc(-c2ccc(C(F)(F)F)cc2O)c2ccccc12 [Compound 26],6.00 to 6.30
19,Cn1cnc2c(N[C@H]3CCc4ncccc43)nnc(-c3ccc(C(F)(F)F)cc3O)c21 [Compound 78],< 6.00
20,"CN1CCC[C@@H](Nc2nnc(-c3ccccc3O)c3ccccc23)C1 [Compound 31, (R)-2-(4-((1-methylpiperidin-3-yl)amino)phthalazin-1-yl)phenol]",6.00 to 6.30
21,"C[C@@H](Nc1nnc(-c2ccc(C(F)(F)F)cc2O)c2ccccc12)c1ccccc1 [Compound 7, (R)-2-(4-((1-phenylethyl)amino)phthalazin-1-yl)-5-(trifluoromethyl)phenol]",< 6.00
22,CN1CC[C@@H](Oc2nnc(-c3ccc(C(F)(F)F)cc3O)c3c2ncn3C)C1 [Compound 85],< 6.00
23,"COc1ccc2c(N[C@@H]3CCCN(C)C3)nnc(-c3ccc(C(F)(F)F)cc3O)c2c1 [Compound 5, (R)-2-(7-methoxy-4-((1-methylpiperidin-3-yl)amino)phthalazin-1-yl)-5-(trifluoromethyl)phenol]",> 7.70

row,Compound,pEC50
1,"Cc1ccc2c(-c3ccc(C(F)(F)F)cc3O)nnc(N[C@@H]3CCCN(C)C3)c2c1 [Compound 4, (R)-2-(6-methyl-4-((1-methylpiperidin-3-yl)amino)phthalazin-1-yl)-5-(trifluoromethyl)phenol]",> 7.70
2,CN1CC(Nc2nnc(-c3ccc(C(F)(F)F)cc3O)c3ncn(C)c23)CCC1=O (stereo not drawn) [Compound 81],< 6.00
3,"Cc1ccc2c(N[C@@H]3CCCN(C)C3)nnc(-c3ccc(C(F)(F)F)cc3O)c2n1 [Compound 53, (R)-2-(2-methyl-5-((1-methylpiperidin-3-yl)amino)pyridino[2,3-d]pyridazin-8-yl)-5-(trifluoromethyl)phenol]",6.30 to 7.00
4,"Oc1cc(C(F)(F)F)ccc1-c1nnc(N[C@@H]2CCCNC2)c2ccccc12 [Compound 22, (R)-2-(4-(piperidin-3-ylamino)phthalazin-1-yl)-5-(trifluoromethyl)phenol]",> 7.70
5,"CCc1cnc2c(N[C@@H]3CCCN(C)C3)nnc(-c3ccc(C(F)(F)F)cc3O)c2c1 [Compound 50, (R)-2-(3-ethyl-8-((1-methylpiperidin-3-yl)amino)pyridino[2,3-d]pyridazin-5-yl)-5-(trifluoromethyl)phenol]",> 7.70
6,Cc1ccc(-c2nnc(N[C@@H]3CCCN(C)C3)c3cnn(C)c23)c(O)c1 [Compound 65],> 7.70
7,Cn1cnc2c(O[C@@H]3CCCN(CC(F)(F)F)C3)nnc(-c3ccc(C(F)(F)F)cc3O)c21 [Compound 84],< 6.00
8,"Cc1ccc(O)c(-c2nnc(N[C@@H]3CCCN(C)C3)c3ccccc23)c1 [Compound 47, (R)-4-methyl-2-(4-((1-methylpiperidin-3-yl)amino)phthalazin-1-yl)phenol]",< 6.00
9,Cn1cnc2c(N[C@H]3CCCc4ncccc43)nnc(-c3ccc(C(F)(F)F)cc3O)c21 [Compound 79],< 6.00
10,"CN1CCC[C@@H](Nc2nnc(-c3ccc(C(F)(F)F)cc3O)c3cscc23)C1 [Compound 54, (R)-2-(4-((1-methylpiperidin-3-yl)amino)thieno[3,4-d]pyridazin-1-yl)-5-(trifluoromethyl)phenol]",> 7.70
11,"CCN1CCC[C@@H]1CNc1nnc(-c2ccc(C(F)(F)F)cc2O)c2ccccc12 [Compound 27, (R)-2-(4-(((1-ethylpyrrolidin-2-yl)methyl)amino)phthalazin-1-yl)-5-(trifluoromethyl)phenol]",6.00 to 6.30
12,Cn1cnc2c(NCCN3CCOCC3)nnc(-c3ccc(F)cc3O)c21 [Compound 82],< 6.00
13,"CN1CCC[C@@H](Nc2nnc(-c3ccc(C(F)(F)F)cc3O)c3cnn(C)c23)C1 [Compound 62, (R)-2-(1-methyl-7-((1-methylpiperidin-3-yl)amino)-1H-pyrazolo[3,4-d]pyridazin-4-yl)-5-(trifluoromethyl)phenol]",> 7.70
14,"CN1CCC[C@@H](Nc2nnc(-c3ccc(C(F)(F)F)cc3O)c3c2ncn3C)C1 [Compound 37, (R)-2-(1-methyl-4-((1-methylpiperidin-3-yl)amino)-1H-imidazo[4,5-d]pyridazin-7-yl)-5-(trifluoromethyl)phenol]",> 7.70
15,CN(C)[C@H]1CC[C@@H](Nc2nnc(-c3ccc(C(F)(F)F)cc3O)c3ccccc23)CC1 [Compound 19],6.00 to 6.30
16,CCN1CCC[C@H]1CNc1nnc(-c2ccc(C(F)(F)F)cc2O)c2ccccc12 [Compound 28],6.30 to 7.00
17,CN1CCC[C@@H](Nc2nnc(-c3ccc(C(F)(F)F)cc3O)c3c2nc(C2CC2)n3C)C1 [Compound 59],> 7.70
18,"CCCCNc1nnc(-c2ccc(C(F)(F)F)cc2O)c2ccccc12 [Compound 11, 2-(4-(butylamino)phthalazin-1-yl)-5-(trifluoromethyl)phenol]",< 6.00
19,Cc1ccc(-c2nnc(NCCN3CCOCC3)c3c2cnn3C)c(O)c1 [Compound 74],< 6.00
20,CN1CCC[C@@H](Nc2nnc(-c3ccc(C(F)(F)F)cc3O)c3c2nc(C(F)(F)F)n3C)C1 [Compound 58],> 7.70
21,CN1CCC[C@@H](Nc2nnc(-c3ccc(C(F)(F)F)cc3O)c3ccncc23)C1 [Compound 17],> 7.70
22,"Cc1cnc2c(N[C@@H]3CCCN(C)C3)nnc(-c3ccc(F)cc3O)c2c1 [Compound 55, (R)-5-fluoro-2-(3-methyl-8-((1-methylpiperidin-3-yl)amino)pyridino[2,3-d]pyridazn-5-yl)phenol]",> 7.70
